According to ChEMBL document CHEMBL4507268 (2021):

Key:
[1] = target: D(1A) dopamine receptor (Homo sapiens) (UniProt P21728); settings: Compound concentration 10.0 uM
[2] = target: Receptor tyrosine-protein kinase erbB-2 (Homo sapiens) (UniProt P04626); settings: Compound concentration 1.0 uM
[3] = target: Interleukin-1 receptor-associated kinase 1 (Homo sapiens) (UniProt P51617); settings: Compound concentration 1.0 uM
[4] = target: Epidermal growth factor receptor (Homo sapiens) (UniProt P00533); settings: Compound concentration 1.0 uM
[5] = target: Mitogen-activated protein kinase kinase kinase kinase 1 (Homo sapiens) (UniProt Q92918); settings: Compound concentration 1.0 uM
[6] = target: Tyrosine-protein kinase BTK (Homo sapiens) (UniProt Q06187); settings: Compound concentration 1.0 uM
[7] = target: T1, Ephrin type-B receptor 3 (Homo sapiens) (UniProt P54753); settings: Compound concentration 1.0 uM
T1 sequence (whole entry): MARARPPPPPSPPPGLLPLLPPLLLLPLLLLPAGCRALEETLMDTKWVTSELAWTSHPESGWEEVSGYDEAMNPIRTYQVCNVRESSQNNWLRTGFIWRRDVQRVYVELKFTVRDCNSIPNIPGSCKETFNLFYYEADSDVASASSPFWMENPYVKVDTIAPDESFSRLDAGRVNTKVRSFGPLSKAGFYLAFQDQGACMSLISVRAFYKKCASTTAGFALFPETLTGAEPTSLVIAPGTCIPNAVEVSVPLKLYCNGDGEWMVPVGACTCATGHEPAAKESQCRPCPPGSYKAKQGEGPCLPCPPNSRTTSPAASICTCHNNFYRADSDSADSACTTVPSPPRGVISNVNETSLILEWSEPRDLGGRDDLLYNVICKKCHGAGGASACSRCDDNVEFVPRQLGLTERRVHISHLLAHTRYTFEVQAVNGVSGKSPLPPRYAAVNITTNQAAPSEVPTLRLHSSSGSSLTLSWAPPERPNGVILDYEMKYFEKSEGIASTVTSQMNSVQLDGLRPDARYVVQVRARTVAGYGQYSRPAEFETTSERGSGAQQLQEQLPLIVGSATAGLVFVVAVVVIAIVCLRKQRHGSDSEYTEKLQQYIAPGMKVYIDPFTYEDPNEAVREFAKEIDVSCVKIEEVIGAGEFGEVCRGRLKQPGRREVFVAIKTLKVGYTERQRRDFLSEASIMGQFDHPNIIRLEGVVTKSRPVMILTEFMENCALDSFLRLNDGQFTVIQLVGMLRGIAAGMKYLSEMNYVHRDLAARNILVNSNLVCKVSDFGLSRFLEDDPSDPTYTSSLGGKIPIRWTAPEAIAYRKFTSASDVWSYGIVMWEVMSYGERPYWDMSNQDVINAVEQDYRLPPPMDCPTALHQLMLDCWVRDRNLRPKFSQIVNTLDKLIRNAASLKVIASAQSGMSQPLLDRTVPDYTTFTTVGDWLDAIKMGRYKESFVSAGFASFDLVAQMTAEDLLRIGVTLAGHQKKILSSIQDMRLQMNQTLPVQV

[8] = target: Dual specificity protein kinase CLK1 (Homo sapiens) (UniProt P49759); settings: Compound concentration 1.0 uM
[9] = target: Tyrosine-protein kinase Fer (Homo sapiens) (UniProt P16591); settings: Compound concentration 1.0 uM
[10] = target: Casein kinase I isoform gamma-2 (Homo sapiens) (UniProt P78368); settings: Compound concentration 1.0 uM
[11] = target: T2, Ephrin type-A receptor 1 (Homo sapiens) (UniProt P21709); settings: Compound concentration 1.0 uM
T2 sequence (whole entry): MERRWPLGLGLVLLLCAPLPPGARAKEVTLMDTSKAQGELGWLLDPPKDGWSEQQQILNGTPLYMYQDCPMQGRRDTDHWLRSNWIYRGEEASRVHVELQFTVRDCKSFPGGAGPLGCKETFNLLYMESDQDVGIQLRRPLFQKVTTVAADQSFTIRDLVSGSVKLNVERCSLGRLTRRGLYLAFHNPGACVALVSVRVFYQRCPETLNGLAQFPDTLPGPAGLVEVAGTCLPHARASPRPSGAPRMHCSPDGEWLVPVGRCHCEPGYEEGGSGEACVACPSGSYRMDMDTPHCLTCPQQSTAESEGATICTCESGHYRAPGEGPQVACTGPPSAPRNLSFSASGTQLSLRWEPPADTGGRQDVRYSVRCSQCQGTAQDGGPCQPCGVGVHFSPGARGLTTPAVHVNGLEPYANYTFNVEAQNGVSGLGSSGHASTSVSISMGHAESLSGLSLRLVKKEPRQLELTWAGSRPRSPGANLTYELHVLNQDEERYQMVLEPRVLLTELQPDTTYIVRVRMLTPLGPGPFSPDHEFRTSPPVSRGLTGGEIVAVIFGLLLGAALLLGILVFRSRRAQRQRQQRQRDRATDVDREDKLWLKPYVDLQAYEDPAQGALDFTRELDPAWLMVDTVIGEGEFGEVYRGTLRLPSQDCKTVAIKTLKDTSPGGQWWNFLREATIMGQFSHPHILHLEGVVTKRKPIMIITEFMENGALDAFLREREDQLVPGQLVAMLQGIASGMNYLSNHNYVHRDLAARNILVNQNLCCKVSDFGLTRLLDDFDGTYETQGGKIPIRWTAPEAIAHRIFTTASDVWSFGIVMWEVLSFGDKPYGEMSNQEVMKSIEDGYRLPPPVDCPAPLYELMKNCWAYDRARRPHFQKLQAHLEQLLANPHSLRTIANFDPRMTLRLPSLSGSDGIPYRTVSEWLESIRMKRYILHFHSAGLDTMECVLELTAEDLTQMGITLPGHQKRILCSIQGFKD

[12] = target: T3, Serine/threonine-protein kinase Nek3 (Homo sapiens) (UniProt P51956); settings: Compound concentration 1.0 uM
T3 sequence (whole entry): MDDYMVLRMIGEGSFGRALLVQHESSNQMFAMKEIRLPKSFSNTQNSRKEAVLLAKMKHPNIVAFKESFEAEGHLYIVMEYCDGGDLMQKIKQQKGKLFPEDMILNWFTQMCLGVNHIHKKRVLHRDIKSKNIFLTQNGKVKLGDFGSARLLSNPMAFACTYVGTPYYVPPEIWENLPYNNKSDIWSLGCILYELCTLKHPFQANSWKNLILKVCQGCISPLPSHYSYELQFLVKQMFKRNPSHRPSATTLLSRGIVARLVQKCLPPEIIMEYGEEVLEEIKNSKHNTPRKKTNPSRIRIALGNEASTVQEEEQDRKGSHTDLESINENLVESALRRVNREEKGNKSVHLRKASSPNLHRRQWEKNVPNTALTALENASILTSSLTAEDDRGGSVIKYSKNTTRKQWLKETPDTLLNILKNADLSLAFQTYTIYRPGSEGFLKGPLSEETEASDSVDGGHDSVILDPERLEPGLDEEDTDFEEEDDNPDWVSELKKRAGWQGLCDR

Chain of Dual specificity protein kinase CLK1 (Homo sapiens) (P49759 whole entry, looked up): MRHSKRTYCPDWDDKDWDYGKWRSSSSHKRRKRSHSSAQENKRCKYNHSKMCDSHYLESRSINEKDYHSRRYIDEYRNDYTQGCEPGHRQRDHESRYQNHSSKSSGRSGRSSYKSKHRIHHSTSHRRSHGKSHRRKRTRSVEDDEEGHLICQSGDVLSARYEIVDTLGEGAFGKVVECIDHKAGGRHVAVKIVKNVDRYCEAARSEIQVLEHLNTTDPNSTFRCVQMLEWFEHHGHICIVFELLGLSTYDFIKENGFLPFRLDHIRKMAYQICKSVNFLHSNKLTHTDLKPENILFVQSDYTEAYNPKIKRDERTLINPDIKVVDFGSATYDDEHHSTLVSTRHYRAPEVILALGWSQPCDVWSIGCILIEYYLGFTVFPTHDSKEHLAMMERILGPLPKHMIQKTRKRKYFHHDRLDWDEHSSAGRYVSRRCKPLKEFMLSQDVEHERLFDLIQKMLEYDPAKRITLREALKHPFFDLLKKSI
Chain of D(1A) dopamine receptor (Homo sapiens) (P21728 whole entry): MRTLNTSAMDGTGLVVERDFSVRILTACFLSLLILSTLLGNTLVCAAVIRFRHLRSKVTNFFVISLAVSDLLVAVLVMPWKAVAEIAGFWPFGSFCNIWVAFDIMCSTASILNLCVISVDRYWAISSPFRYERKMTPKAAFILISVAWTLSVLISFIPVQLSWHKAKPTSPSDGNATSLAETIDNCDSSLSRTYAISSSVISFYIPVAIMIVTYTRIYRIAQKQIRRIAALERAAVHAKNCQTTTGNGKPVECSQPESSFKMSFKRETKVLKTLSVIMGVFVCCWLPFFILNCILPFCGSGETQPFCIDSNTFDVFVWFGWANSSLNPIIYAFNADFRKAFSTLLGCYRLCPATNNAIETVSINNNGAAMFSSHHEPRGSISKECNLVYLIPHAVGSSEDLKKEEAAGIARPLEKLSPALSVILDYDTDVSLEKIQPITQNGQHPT
Chain of Tyrosine-protein kinase Fer (Homo sapiens) (P16591 whole entry, looked up, canonical isoform): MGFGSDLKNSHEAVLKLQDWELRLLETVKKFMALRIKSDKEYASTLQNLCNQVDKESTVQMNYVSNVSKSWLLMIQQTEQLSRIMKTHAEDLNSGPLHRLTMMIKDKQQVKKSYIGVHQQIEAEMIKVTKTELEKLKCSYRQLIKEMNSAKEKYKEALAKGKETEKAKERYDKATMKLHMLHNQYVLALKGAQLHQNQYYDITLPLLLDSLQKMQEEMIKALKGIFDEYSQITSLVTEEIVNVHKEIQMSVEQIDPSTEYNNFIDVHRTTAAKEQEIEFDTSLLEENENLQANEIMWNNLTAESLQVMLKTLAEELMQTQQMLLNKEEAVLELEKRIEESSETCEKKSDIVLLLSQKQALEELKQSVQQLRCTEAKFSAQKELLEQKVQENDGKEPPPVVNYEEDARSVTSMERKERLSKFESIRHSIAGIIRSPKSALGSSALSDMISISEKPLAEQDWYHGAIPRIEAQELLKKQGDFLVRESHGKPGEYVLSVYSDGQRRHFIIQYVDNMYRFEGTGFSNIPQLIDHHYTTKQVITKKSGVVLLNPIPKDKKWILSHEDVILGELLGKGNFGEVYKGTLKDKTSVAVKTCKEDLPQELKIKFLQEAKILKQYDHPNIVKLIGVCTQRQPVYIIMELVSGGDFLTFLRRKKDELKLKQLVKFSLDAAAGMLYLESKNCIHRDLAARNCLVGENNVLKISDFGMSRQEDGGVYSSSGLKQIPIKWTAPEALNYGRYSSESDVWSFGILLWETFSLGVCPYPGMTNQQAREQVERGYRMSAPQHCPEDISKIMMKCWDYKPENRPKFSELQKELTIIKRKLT
Chain of Mitogen-activated protein kinase kinase kinase kinase 1 (Homo sapiens) (Q92918 whole entry, looked up): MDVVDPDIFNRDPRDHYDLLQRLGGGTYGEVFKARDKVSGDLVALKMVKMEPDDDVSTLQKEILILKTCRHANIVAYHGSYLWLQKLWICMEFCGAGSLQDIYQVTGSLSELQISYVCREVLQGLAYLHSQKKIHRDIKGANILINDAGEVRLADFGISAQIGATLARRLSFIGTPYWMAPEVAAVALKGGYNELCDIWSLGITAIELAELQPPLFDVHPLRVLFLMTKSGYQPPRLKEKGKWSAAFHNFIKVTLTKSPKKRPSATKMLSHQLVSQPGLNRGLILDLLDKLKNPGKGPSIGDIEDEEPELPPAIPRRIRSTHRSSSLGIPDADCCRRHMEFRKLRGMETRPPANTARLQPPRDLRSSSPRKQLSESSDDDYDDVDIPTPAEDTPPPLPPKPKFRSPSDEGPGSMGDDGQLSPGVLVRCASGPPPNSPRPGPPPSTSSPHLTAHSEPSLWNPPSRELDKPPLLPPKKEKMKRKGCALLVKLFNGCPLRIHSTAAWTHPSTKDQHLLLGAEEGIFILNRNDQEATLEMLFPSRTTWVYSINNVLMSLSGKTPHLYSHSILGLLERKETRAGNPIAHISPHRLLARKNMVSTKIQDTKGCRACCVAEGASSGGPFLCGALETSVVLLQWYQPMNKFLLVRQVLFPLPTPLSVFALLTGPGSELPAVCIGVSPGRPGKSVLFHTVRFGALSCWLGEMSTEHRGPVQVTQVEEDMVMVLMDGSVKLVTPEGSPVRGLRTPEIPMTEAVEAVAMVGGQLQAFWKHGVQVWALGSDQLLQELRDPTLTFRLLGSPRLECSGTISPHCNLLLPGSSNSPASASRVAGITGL
Chain of Tyrosine-protein kinase BTK (Homo sapiens) (Q06187 whole entry): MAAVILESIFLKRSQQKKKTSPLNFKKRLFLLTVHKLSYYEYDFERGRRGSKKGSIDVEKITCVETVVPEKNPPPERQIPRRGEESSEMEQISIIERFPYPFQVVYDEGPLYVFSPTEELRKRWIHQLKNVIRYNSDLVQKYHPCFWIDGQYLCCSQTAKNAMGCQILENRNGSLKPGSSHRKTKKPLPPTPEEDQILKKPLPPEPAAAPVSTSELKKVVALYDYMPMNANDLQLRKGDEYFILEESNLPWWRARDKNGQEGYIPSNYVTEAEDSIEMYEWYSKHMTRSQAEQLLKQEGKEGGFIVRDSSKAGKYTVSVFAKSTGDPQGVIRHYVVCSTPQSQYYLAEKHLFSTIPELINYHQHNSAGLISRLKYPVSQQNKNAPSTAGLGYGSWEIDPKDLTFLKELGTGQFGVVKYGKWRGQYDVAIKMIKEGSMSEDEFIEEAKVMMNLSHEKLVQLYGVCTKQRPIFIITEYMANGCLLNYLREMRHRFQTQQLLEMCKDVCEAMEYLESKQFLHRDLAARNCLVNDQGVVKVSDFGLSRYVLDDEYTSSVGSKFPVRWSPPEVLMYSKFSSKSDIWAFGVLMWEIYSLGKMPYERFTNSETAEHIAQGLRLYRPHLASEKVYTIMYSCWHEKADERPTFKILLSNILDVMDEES
Chain of Epidermal growth factor receptor (Homo sapiens) (P00533 whole entry): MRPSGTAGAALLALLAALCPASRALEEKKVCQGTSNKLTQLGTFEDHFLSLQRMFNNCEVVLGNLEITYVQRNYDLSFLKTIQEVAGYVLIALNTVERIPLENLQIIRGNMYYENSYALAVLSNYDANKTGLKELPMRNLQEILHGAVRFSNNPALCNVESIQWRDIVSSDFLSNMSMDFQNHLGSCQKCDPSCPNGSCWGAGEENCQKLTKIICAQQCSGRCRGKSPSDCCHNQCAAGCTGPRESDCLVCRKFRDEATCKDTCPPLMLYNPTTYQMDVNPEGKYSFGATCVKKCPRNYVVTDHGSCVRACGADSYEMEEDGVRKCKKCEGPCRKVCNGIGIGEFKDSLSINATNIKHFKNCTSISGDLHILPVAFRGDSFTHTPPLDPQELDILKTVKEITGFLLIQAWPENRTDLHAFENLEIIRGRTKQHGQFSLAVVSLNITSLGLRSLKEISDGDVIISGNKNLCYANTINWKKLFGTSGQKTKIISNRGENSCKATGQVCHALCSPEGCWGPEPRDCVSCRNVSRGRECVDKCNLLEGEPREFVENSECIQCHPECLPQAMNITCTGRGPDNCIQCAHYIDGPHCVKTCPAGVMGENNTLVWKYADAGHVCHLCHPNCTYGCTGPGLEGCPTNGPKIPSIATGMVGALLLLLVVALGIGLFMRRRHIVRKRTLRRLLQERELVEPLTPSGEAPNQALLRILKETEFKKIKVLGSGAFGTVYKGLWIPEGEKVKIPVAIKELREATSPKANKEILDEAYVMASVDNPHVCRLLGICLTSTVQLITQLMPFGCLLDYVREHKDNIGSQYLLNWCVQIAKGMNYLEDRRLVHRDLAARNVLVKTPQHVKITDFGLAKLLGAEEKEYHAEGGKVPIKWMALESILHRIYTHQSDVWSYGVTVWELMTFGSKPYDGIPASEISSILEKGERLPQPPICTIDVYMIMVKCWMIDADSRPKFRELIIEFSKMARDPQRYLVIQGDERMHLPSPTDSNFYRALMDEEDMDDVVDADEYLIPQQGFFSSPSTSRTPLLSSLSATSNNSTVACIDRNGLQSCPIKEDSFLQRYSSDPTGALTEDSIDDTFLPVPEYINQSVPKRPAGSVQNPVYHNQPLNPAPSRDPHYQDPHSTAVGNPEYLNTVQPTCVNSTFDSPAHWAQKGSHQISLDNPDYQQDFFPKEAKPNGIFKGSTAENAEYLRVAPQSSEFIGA
Chain of Casein kinase I isoform gamma-2 (Homo sapiens) (P78368 whole entry, looked up, canonical isoform): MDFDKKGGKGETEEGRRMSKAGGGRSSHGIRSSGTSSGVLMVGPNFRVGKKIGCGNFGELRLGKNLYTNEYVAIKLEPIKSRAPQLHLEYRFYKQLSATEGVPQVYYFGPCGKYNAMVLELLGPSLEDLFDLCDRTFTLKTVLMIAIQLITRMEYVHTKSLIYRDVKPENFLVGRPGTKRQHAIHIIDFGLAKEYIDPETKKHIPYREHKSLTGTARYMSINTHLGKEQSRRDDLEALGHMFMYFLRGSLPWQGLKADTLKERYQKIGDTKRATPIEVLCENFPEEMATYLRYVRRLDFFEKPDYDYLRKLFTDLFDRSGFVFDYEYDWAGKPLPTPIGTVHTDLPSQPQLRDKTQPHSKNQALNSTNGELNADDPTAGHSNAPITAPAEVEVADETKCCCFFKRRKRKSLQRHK

Cc1nc(C2CCN(C(=O)c3ccc(OC(F)(F)F)cc3N)CC2)c2ncc(N3CCN(C)CC3)cc2n1 [BAY-693]
inactive: inhibition [1] 2.66%

CN1CCN(c2cnc3c(C4CCN(C(=O)c5ccc(OC(F)(F)F)cc5N)CC4)ncnc3c2)CC1 [BAY-885]
inactive: % residual kinase activity [2] 96% | % residual kinase activity [3] 110% | % residual kinase activity [4] 105% | % residual kinase activity [5] 106% | % residual kinase activity [6] 98% | % residual kinase activity [7] 42% | % residual kinase activity [8] 105% | % residual kinase activity [9] 38% | % residual kinase activity [10] 91% | % residual kinase activity [11] 106% | % residual kinase activity [12] 111%
